Measurements as given in patent US20140093903A1, “METHODS FOR DIAGNOSIS, PROGNOSIS AND METHODS OF TREATMENT” (Nodality, Inc., priority 2012, published 2014).

Columns and labels:
CLL cells [1] = settings: inhibition of AKT phosphorylation by the PI3K inhibitor; cited from earlier work
CD19+CD5+ CLL cells [2] = experiment: SCNP drug-induced signaling, Example 2 (4 and 24 hours); type: cell-based, human
Protocol: Peripheral blood mononuclear cells (PBMCs) were obtained from 29 patients with CLL treated on a clinical trial at “La Sapienza” University of Rome between November 2008 and January 2010 at the time of but prior to the initiation of first treatment. All patients provided informed consent for research purposes. SCNP assays were performed blinded to clinical outcomes. […] SCNP analysis was performed to quantitatively measure 18 intracellular signaling proteins within CD19+CD5+ CLL cells using a panel of 14 disease-relevant modulators (FIG. 27) as follows:
SCNP analysis was performed to quantitatively measure intracellular signaling proteins within CD19+CD5+ CLL cells using a panel of disease-relevant modulators. First, the cryopreserved PBMC samples were thawed at 37° C., stained for viability with Amine Aqua (Invitrogen, Carlsbad, Calif.), resuspended in RPMI with 10% FBS and aliquoted at 100,000 cells per well 96-deepwell plates. Cells were rested for 2 hours at 37° C. followed by modulation. Short duration modulation was performed for 10 minutes at 37° C. with the following modulators: 20 μg/mL polyclonal goat F(ab′)2 anti-human IgM (Southern Biotech, Birmingham, Ala.), 5 μg/mL monoclonal anti-human IgD (BD Biosciences, San Jose, Calif.), 10 ng/mL of SDF1□ (R&D Systems, Minneapolis, Minn.), and the combination of 20 μg/mL polyclonal goat F(ab′)2 anti-human IgM and 10 ng/mL of SDF1□□□15 minute modulations were performed for the following: 0.5 μg/mL CD40L (R&D Systems, Minneapolis, Minn.), 50 ng/mL IL-2 (R&D Systems, Minneapolis, Minn.), 50 ng/mL IL-4 (BD Biosciences, San Jose, Calif.), 50 ng/mL IL-21 (Peprotech, Rocky Hill, N.J.), 1000 IU/mL of IFN□ (PBL InterferonSource, Piscataway, N.J.), 5 μg/mL R848 (Invivogen, San Diego, Calif.), and 1 μM thapsigargin (EMD Millipore, Billerica, Mass.). […]

CLL cells [3] = settings: in vitro treatment; Buchner 2009, Gobessi 2009; cited from earlier work
CD19+CD5+B-CLL cells = experiment: SCNP modulated signaling, Example 3 (B-CLL vs healthy B cells); type: cell-based, human; settings: CLL samples compared to healthy controls
Protocol: Peripheral blood mononuclear cells (PBMCs) were obtained from 39 B-CLL patients between 2006 and 2007, Rai stage 0-II, at different time points during their clinical course but prior to the initiation of treatment. PBMCs from four age-matched healthy donors were collected at the Stanford Blood Center. All donors provided informed consent for research purposes. SCNP assays were performed blinded to clinical data. Diagnosis and initiation of treatment for B-CLL were based on 1996 National Cancer Institute-Working Group (NCI-WG)/IWCLL 2008 Guidelines for Diagnosis and Treatment of CLL. The median age of CLL patients was slightly lower than the typical CLL population (58 years vs 65-70). Of the 39 samples evaluated, 15 expressed CD38 (≧30% of cells) and 20 expressed ZAP-70 (≧20% of cells); 19 were IGHV unmutated (98% cutoff); and the cytogenetic risk groups were evenly represented. IGHV mutational status and expression of CD38 and ZAP-70 were determined. […]
SCNP analysis quantitatively measured intracellular signaling proteins within CD19+CD5+B-CLL cells using a panel of disease-relevant modulators (FIG. 27, FIG. 35A, B). […]
Flow cytometry data were gated using WinList (Verity House Software, Topsham, Me.). […] The raw instrument fluorescence intensities were converted to calibrated intensity metrics (ERFs, Equivalent Number of Reference Fluorophores). […]

CD19+CD5+ CLL cells [4] = experiment: SCNP modulated signaling, Example 2 (10-15 min modulation); type: cell-based, human; settings: SDF1α 10 ng/mL
Protocol: Peripheral blood mononuclear cells (PBMCs) were obtained from 29 patients with CLL treated on a clinical trial at “La Sapienza” University of Rome between November 2008 and January 2010 at the time of but prior to the initiation of first treatment. All patients provided informed consent for research purposes. SCNP assays were performed blinded to clinical outcomes. Diagnosis and initiation of treatment for B-CLL were based on 1996 National Cancer Institute-Working Group ([…] 2008 Guidelines for Diagnosis and Treatment of CLL. Clinical and biological disease characteristics at diagnosis are summarized in FIG. 28 IGHV mutational status and expression of CD38 and ZAP-70 were determined. […] SCNP analysis was performed to quantitatively measure intracellular signaling proteins within CD19+CD5+ CLL cells using a panel of disease-relevant modulators. […] Cells were rested for 2 hours at 37° C. followed by modulation. Short duration modulation was performed for 10 minutes at 37° C. with the following modulators: 20 μg/mL polyclonal goat F(ab')2 anti-human IgM (Southern Biotech, Birmingham, Ala.), 5 μg/mL monoclonal anti-human IgD (BD Biosciences, San Jose, Calif.), 10 ng/mL of SDF1[…] (R&D Systems, Minneapolis, Minn.), and the combination of 20 μg/mL polyclonal goat F(ab')2 anti-human IgM and 10 ng/mL of SDF1[…]15 minute modulations were performed for the following: 0.5 μg/mL CD40L (R&D Systems, Minneapolis, Minn.), 50 ng/mL IL-[…] […] The raw instrument fluorescence intensities were converted to calibrated intensity metrics (ERFs, Equivalent Number of Reference Fluorophores). […] The term “signaling node” is used to refer to a proteomic readout in the presence or absence of a specific modulator. For example, the response to anti-IgM modulation can be measured using p-ERK as a readout. […] The term “metric” is used to refer to the quantification method used to evaluate the functional response of signaling proteins. […]

CLL B cells = experiment: SCNP phospho-flow: H2O2-modulated BCR signaling, CLL samples; type: cell-based, human; settings: after exposure to H2O2
Protocol: Cryopreserved PBMCs, 23 from CLL patients and 7 from healthy donors, were rapidly thawed in a 37° C. water bath. 1 mL of pre-warmed thawing media (PBS 1% FBS, 2 mM EDTA) was added dropwise to each of the cryovials. […] Supernatant was decanted, cell pellets were resuspended in 1 mL RPMI 1640 1% FCS and filtered over 70 um nylon mesh (BD Falcon) to remove cell clumps and debris. 11 mL of additional RPMI 1640 1% FCS was added to the samples to wash. A 20 uL aliquot was removed from each sample and placed into a solution of PBS 4% FCS CD45 Alexa Flour 700 and Propidium Iodide for viability and counting on a BDLSRII cytometer.
At the end of the 10 minute incubation […] 5.6% PFA (final 1.6%) was added to each well to fix the cells.
At the end of the 10 minute incubation 200 uL 5.6% PFA (final 1.6%) was added to each well to fix the cells.
Cells were permeabilized by adding 600 µL of ice cold 100% methanol to each well using the Costar 96-channel pipettor (Costar). […]
To test whether phenotypic characterization of CLL physiology could be discerned based on responses of cells to extracellular stimuli, modulated BCR intracellular signaling was determined either in response to anti-μ (ligand-dependent) or post H2O2 treatment to evaluate the contribution of tonic signaling (ligand-independent) to BCR output. […]

healthy B cells = tested on: healthy B cells
Protocol: Cryopreserved PBMCs, 23 from CLL patients and 7 from healthy donors, were rapidly thawed in a 37° C. water bath. 1 mL of pre-warmed thawing media (PBS 1% FBS, 2 mM EDTA) was added dropwise to each of the cryovials. Thawed cells were transferred to a tube containing 8 mL thawing media. Tubes were inverted and centrifuged at 200×g for 8 minutes at room temperature. Supernatant was decanted, cell pellets were resuspended in 1 mL RPMI 1640 1% FCS and filtered over 70 um nylon mesh (BD Falcon) to remove cell clumps and debris. 11 mL of additional RPMI 1640 1% FCS was added to the samples to wash. A 20 uL aliquot was removed from each sample and placed into a solution of PBS 4% FCS CD45 Alexa Flour 700 and Propidium Iodide for viability and counting on a BDLSRII cytometer. The remaining volume of cell suspension was centrifuged at 200×g for 8 minutes at room temperature
For single agent modulators 150 μL of 10× solutions were arrayed into wells of a 96-well v-bottom plate (Nunc). Corresponding daughter plates were taken from the 37° C. incubator, and […] of RPMI1640 1% FCS was added to each well using the Liquidator 96-well pipettor. […] The daughter plates were pulse vortexed for 5 seconds and placed into a 37° C. water bath for 10 minutes.
Corresponding daughter plates were taken from the 37° C. incubator. […]
Antibody cocktails for signaling and apoptosis readouts were prepared in FACS Buffer. […]

[5] = 24 hours, samples with low spontaneous apoptosis

CC[C@H](Nc1ncnc2[nH]cnc12)c1nc2cccc(F)c2c(=O)n1-c1ccccc1 [CAL-101/GS-1101]
CD40L protection from spontaneous apoptosis (CLL cells [1]): blocked

Cn1c(CCCC(=O)O)nc2cc(N(CCCl)CCCl)ccc21 [bendamustine]
induced p-53BP1 signaling, bendamustine versus fludarabine (CD19+CD5+ CLL cells [2]; [5]): greater
induced p-H2AX signaling, bendamustine versus fludarabine (CD19+CD5+ CLL cells [2]; [5]): equivalent
p21 induction in response to bendamustine (CD19+CD5+ CLL cells [2]; CLL samples with 17p deletion, 24 hour, additional cohort of 7 CLL samples): impaired p21 induction

COc1cc(Nc2ncc(F)c(Nc3ccc4c(n3)NC(=O)C(C)(C)O4)n2)cc(OC)c1OC [R406]
apoptotic response of CLL cells (CLL cells [3]): mediated an apoptotic response

SDF1α
SDF1α→p-AKT modulation as a single stimulus (CD19+CD5+B-CLL cells): weaker in nearly all CLL samples
SDF1α→p-AKT signal (CD19+CD5+ CLL cells [4]; 10 min, moderate signal): ≥ 0.25 log 2Fold
SDF1α→p-ERK signal (CD19+CD5+ CLL cells [4]; 10 min, moderate signal): ≥ 0.25 log 2Fold
p-ERK signal, median log 2Fold (CD19+CD5+ CLL cells [4]; 10 min modulation, αIgM 20 μg/mL): 0.38 log 2Fold

OO [H2O2, hydrogen peroxide]
B cells with activated Syk and BLNK (CLL B cells; sample CLL007 (Group II)): approximately 2%
B cells with activated Syk and BLNK (CLL B cells; sample CLL021 (Group II)): 5-6%
anti-μ-mediated BCR signaling in presence of H2O2 (healthy B cells; B cells from healthy donors): further potentiated
response of all signaling molecules except Akt to H2O2 treatment alone (healthy B cells; healthy B cells): minimally responsive
